Results reported in EP3952873B1 (priority 2019, dated 2020).

What was measured:
recombinant CaMK2a = target: T1, recombinant CaMK2a (Rattus norvegicus, UniProt P11275); assay: [3H]HOCPCA binding to recombinant CaMK2a expressed in HEK293T cells
T1 construct: host or cells: HEK293T
Experimental: Protein concentration was determined using the Bradford protein assay. […] The dried filters were added scintillation liquid and radioactivity measured on a Tricarb 2100 Scintillation counter (Packard).

[1] = assay type: in vitro ADME, mouse; conditions: during the metabolic stability study
Experimental: Metabolic stability analysis was performed on a Bruker Avance Ultra High Performance Liquid Chromatography (UHPLC) (Bruker Daltonik, Bremen, Germany) equipped with a CTC-PAL-xt autosampler with cooled sample compartments (10 °C) and a column oven held at 40 °C. The UHPLC eluate was directed to a Bruker Evoq Elite triple quad-ropole MS equipped with a heated electrospray ionization source operated in positive ionization mode. Separation of 15 µL sample was obtained using a Phenomenex (Phenomenex, Torrance, CA, USA) Kinetex XB-C18 column (50 mm × 2.1 mm i.d., 1.7 µm particle size) equipped with a guard column. The analytes were separated using a solvent system consisting of water/acetonitrile (95:5, v/v) (eluent A) and water/acetonitrile (5:95, v/v) (eluent B); both acidified with 0.1% formic acid. The eluent flow rate was maintained at 0.4 mL/min with the following gradient elution profile: 0 min: 0% B; 5 min: 100% B; 6 min: 100% B, followed by three min equilibration at 0% B. Two ion transitions were monitored for all analytes and internal standard.
The mouse liver microsome assay was performed by transferring 25 µL of a 20 µM solution of the test compound (0.5% DMSO), dissolved in potassium phosphate monobasic buffer (pH 7.4) containing 3 mM MgCl2, to 9 wells in a microtiter plate. To each well, […] of a 0.5 mg/mL mouse liver (Sigma Aldrich) in buffer was added, and the microtiter plate were pre-incubated for 5 min at 37 °C in a plate shaker at 600 rpm. After pre-incubation, 50 µL 37 °C NADPH regenerating system, consisting of 2 mM NADP+, 10mM glucose-6-phosphate, and 2 U/mL glucose-6-phosphate dehydrogenase dissolved in buffer, was added to start the assay. In triplicates, immediately after adding the NADPH solution, 75 µL was transferred to an Eppendorf tube, containing […] ice-cold acetonitrile with 400 ng/mL internal standard (7). Similarly, samples were prepared after 30 min and 60 min incubation at 37 °C. The samples were vortexed for 30 seconds and centrifuged at 16,000 × g for 10 minutes before analyzing the supernatant. The individual analyte responses were normalized to the internal standard. Diazepam was used as positive control.
The mouse […] assay was performed by transferring 75 µL of a 10 µM solution of the test compound (0.5% DMSO), dissolved in PBS buffer (pH 7.4), to 9 wells in a microtiter plate. To each well, 75 µL mouse plasma, harvested from in-house mice into K2-EDTA tubes and centrifuged at 1,600 × g, was added. […]
The metabolic stabilities of JON-11 and the prodrugs 1a, 8-12, 19 and 20 were determined in vitro in rat plasma and rat liver microsomes. […] The corresponding loss of prodrug compounds and formation of parent drug JON-11 was determined by UHPLC-MS.

GABAB receptor = target: T2, GABAB receptor (Rattus norvegicus, UniProt Q9Z0U4); assay: GABAB binding assay with [3H]GABA, rat brain synaptic membranes; conditions: at 100 µM
T2 construct: from tissue; host or cells: rat brain synaptic membranes
T2 sequence (Q9Z0U4 20-960): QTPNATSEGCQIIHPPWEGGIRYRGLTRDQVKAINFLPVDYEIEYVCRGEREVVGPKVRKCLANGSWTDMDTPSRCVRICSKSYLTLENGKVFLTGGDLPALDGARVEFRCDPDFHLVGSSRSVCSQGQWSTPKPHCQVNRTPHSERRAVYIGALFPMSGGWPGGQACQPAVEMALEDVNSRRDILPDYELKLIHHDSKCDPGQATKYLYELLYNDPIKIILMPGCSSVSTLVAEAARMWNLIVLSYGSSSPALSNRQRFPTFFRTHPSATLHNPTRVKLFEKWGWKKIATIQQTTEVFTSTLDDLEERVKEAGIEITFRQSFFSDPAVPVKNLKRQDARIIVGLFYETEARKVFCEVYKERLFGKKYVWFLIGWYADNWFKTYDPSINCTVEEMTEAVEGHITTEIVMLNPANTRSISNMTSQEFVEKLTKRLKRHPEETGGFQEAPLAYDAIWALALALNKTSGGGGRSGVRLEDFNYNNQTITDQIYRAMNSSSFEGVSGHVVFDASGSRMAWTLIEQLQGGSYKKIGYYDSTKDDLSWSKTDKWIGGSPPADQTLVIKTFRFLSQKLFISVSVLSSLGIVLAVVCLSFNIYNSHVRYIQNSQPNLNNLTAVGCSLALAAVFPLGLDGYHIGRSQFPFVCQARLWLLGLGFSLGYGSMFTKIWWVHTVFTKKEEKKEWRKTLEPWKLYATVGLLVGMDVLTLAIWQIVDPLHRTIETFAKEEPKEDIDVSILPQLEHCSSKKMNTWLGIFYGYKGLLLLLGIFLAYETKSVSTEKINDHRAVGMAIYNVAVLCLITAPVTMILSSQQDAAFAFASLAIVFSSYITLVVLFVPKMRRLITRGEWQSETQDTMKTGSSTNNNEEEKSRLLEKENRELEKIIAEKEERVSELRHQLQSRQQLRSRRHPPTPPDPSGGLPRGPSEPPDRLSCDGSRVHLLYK
T2 sequence (O88871 41-940 partner): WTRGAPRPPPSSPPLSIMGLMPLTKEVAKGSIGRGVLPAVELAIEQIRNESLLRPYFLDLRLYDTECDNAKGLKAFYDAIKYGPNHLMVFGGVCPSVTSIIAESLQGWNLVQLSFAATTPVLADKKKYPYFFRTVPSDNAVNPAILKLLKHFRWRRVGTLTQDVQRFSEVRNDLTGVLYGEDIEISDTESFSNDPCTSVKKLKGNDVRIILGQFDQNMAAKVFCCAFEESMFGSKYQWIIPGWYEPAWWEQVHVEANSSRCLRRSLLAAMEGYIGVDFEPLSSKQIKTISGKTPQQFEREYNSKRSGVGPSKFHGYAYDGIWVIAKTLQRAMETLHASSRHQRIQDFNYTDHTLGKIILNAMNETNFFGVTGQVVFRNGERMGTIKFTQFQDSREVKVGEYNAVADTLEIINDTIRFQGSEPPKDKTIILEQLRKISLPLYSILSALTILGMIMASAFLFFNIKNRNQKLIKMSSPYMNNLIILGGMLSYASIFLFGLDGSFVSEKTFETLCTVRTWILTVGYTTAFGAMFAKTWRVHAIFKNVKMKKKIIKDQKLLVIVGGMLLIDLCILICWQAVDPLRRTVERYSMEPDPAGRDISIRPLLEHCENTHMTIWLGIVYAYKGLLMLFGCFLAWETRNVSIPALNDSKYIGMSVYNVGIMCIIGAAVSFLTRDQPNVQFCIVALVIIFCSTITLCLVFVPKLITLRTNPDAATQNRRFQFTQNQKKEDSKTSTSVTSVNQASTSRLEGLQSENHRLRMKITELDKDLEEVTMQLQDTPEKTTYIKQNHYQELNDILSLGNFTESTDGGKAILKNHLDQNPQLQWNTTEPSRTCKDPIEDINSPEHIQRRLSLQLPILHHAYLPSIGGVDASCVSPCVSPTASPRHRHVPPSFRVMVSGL
From the text: To assess affinity of JON-11 for the GABAB receptor, we employed a GABAB binding assay using rat brain synaptic membranes (Wellendorph et al., 2005). […] B) JON-11 was further assessed for functional activity using CHO cells stably expressing GABAB(1b,2) receptors (Rajalu et al., 2015).

DTA mouse model = DTA mouse model of narcolepsy (EEG/EMG, cataplexy); assay type: in vivo; conditions: after 8-11 days of chronic administration, 100 mg/kg i.p.
Experimental: Using the DTA mouse model (Tabuchi et al., 2014) we determined changes in sleep-wake EEG/EMG patterns (including cataplexy) at different time points (1 day and 8-11 days) under the influence of JON-11. After drug cessation day 14, EEG/EMG changes were mapped up to day 33. Under anesthesia with isoflurane (2% to 2.5% in O2) electrodes were placed in the scull and neck muscles of the mice. After 5-10 days recovery the electrodes are connected to a recording system, and EEG/EMG signals are recorded with synchronised video recordings. From the data, sleep/wake parameters and cataplexy episodes are scored and calculated. Analyses were performed by an observer blinded to the treatment groups.

T1 sequence (P11275 whole entry): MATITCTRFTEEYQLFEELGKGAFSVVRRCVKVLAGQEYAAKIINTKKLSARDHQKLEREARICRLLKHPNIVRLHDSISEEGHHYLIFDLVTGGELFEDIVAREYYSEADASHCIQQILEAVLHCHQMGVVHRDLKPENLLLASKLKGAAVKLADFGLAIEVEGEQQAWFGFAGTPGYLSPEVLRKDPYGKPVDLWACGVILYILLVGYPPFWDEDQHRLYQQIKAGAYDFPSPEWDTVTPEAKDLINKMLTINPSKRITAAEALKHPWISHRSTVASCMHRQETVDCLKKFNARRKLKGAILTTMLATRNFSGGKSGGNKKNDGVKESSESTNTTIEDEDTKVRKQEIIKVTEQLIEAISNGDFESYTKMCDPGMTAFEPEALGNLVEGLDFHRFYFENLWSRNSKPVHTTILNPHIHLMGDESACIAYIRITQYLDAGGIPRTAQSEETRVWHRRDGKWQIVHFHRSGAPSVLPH

## O=C(O)Cc1cn2nc(-c3ccc(Cl)cc3)ccc2n1 [JON-11, 2-(6-(4-Chlorophenyl)imidazo[1,2-b]pyridazin-2-yl)acetic acid]
Recombinant CaMK2a; 5 nM [3H]HOCPCA, whole cell lysates of CaMK2a-transfected HEK293T cells
  Ki: 3.5 µM
Recombinant CaMK2a; ratio of Ki values, [3H]HOCPCA binding
  higher affinity compared to GHB: 14 x
[1]
  Chemical or enzymatic degradation: not observed
GABAB receptor
  ability to compete with [3H]GABA: no ability to compete
DTA mouse model
  number of cataplexy attacks: significantly decreases
